Results reported in ChEMBL document CHEMBL3885881, “DrugMatrix”.

Species on record: Rattus norvegicus
Test: DrugMatrix - Regimen: Daily Repeat
Format: toxicity, organism-based, Sprague-Dawley
Set-up: regimen Daily Repeat, gender Male, age 6-8 weeks
Conditions: in vivo, po, 1402 mg/kg, route oral GAVAGE, dose level High, vehicle 100 % WATER; for ABSOLUTE BASOPHIL / ABSOLUTE EOSINOPHIL / ABSOLUTE LYMPHOCYTE / ABSOLUTE MONOCYTE / ABSOLUTE SEGMENTED NEUTROPHIL / BASOPHIL / EOSINOPHIL / ERYTHROCYTE COUNT / HEMATOCRIT / HEMOGLOBIN / LEUKOCYTE COUNT / LYMPHOCYTE / MEAN CORPUSCULAR HEMOGLOBIN / MEAN CORPUSCULAR HEMOGLOBIN CONCENTRATION / MEAN CORPUSCULAR VOLUME / MONOCYTE / NEUTROPHIL / NUCLEATED RED BLOOD CELLS / PLATELET COUNT: tissue Blood; for ALANINE AMINOTRANSFERASE / ALBUMIN / ALKALINE PHOSPHATASE / ASPARTATE AMINOTRANSFERASE / BLOOD UREA NITROGEN / CARBON DIOXIDE / CHLORIDE / CHOLESTEROL / CREATINE PHOSPHOKINASE / CREATININE / GLUCOSE / LACTATE DEHYDROGENASE / LIPASE / PHOSPHORUS / POTASSIUM / SODIUM / TOTAL BILIRUBIN / TOTAL PROTEIN / URIC ACID: tissue Plasma

In the case of `C[C@H](CCC(=O)O)[C@H]1CC[C@H]2[C@@H]3[C@H](O)C[C@@H]4C[C@H](O)CC[C@]4(C)[C@H]3C[C@H](O)[C@]12C` [CHOLIC ACID], the “ABSOLUTE BASOPHIL” value (72 h, time 3 day) is reported as 0 CELLS/uL, the “ABSOLUTE EOSINOPHIL” value (72 h, time 3 day) is reported as 95.33 CELLS/uL and the “ABSOLUTE LYMPHOCYTE” value (72 h, time 3 day) is reported as 13410.67 CELLS/uL. The “ABSOLUTE MONOCYTE” value (72 h, time 3 day) was 0 CELLS/uL, the “ABSOLUTE SEGMENTED NEUTROPHIL” value (72 h, time 3 day) was 960.67 CELLS/uL and the BASOPHIL (72 h, time 3 day) was 0%. For the same compound, the EOSINOPHIL (72 h, time 3 day) was 0.67%, the “ERYTHROCYTE COUNT” value (72 h, time 3 day) was 5.62 x10E6/uL and the HEMATOCRIT (72 h, time 3 day) was 34.5%. The HEMOGLOBIN (72 h, time 3 day) was 13.7 G/DL, the “LEUKOCYTE COUNT” value (72 h, time 3 day) was 14.47 x10E3/uL and the LYMPHOCYTE (72 h, time 3 day) was 92.67%. The “MEAN CORPUSCULAR HEMOGLOBIN” value (72 h, time 3 day) was 24.47 pg, the “MEAN CORPUSCULAR HEMOGLOBIN CONCENTRATION” value (72 h, time 3 day) was 39.8 G/DL and the “MEAN CORPUSCULAR VOLUME” value (72 h, time 3 day) was 61.47 fL. The MONOCYTE (72 h, time 3 day) was 0%, the NEUTROPHIL (72 h, time 3 day) was 6.67% and the “NUCLEATED RED BLOOD CELLS” value (72 h, time 3 day) was 0 /100WBC. For the same compound, the “PLATELET COUNT” value (72 h, time 3 day) was 1053.33 x10E3/uL, the “ALANINE AMINOTRANSFERASE” value (72 h, time 3 day) was 55.33 u/L and the ALBUMIN (72 h, time 3 day) was 4.17 G/DL. For the same compound, the “ALKALINE PHOSPHATASE” value (72 h, time 3 day) was 359.33 u/L, the “ASPARTATE AMINOTRANSFERASE” value (72 h, time 3 day) was 84.67 u/L and the “BLOOD UREA NITROGEN” value (72 h, time 3 day) was 16 mg/dL. For the same compound, the “CARBON DIOXIDE” value (72 h, time 3 day) was 32 mmol/L, the CHLORIDE (72 h, time 3 day) was 101.67 MEQ/L and the CHOLESTEROL (72 h, time 3 day) was 91.33 mg/dL. The “CREATINE PHOSPHOKINASE” value (72 h, time 3 day) was 224 u/L, the CREATININE (72 h, time 3 day) was 0.19 mg/dL and the GLUCOSE (72 h, time 3 day) was 152 mg/dL. For the same compound, the “LACTATE DEHYDROGENASE” value (72 h, time 3 day) was 124.33 u/L, the LIPASE (72 h, time 3 day) was 9.67 u/L and the PHOSPHORUS (72 h, time 3 day) was 12.63 mg/dL. The POTASSIUM (72 h, time 3 day) was 7.15 MEQ/L, the SODIUM (72 h, time 3 day) was 144.2 MEQ/L and the “TOTAL BILIRUBIN” value (72 h, time 3 day) was 0.2 mg/dL. For the same compound, the “TOTAL PROTEIN” value (72 h, time 3 day) was 5.77 G/DL, the “URIC ACID” value (72 h, time 3 day) was 1.93 mg/dL and the “ABSOLUTE BASOPHIL” value (120 h, time 5 day) was 0 CELLS/uL. The “ABSOLUTE EOSINOPHIL” value (120 h, time 5 day) was 0 CELLS/uL, the “ABSOLUTE LYMPHOCYTE” value (120 h, time 5 day) was 13701.33 CELLS/uL and the “ABSOLUTE MONOCYTE” value (120 h, time 5 day) was 565.67 CELLS/uL. For the same compound, the “ABSOLUTE SEGMENTED NEUTROPHIL” value (120 h, time 5 day) was 1233 CELLS/uL, the BASOPHIL (120 h, time 5 day) was 0% and the EOSINOPHIL (120 h, time 5 day) was 0%. The “ERYTHROCYTE COUNT” value (120 h, time 5 day) was 5.73 x10E6/uL, the HEMATOCRIT (120 h, time 5 day) was 34.97% and the HEMOGLOBIN (120 h, time 5 day) was 13.73 G/DL. The “LEUKOCYTE COUNT” value (120 h, time 5 day) was 15.5 x10E3/uL, the LYMPHOCYTE (120 h, time 5 day) was 88.67% and the “MEAN CORPUSCULAR HEMOGLOBIN” value (120 h, time 5 day) was 24 pg. For the same compound, the “MEAN CORPUSCULAR HEMOGLOBIN CONCENTRATION” value (120 h, time 5 day) was 39.3 G/DL, the “MEAN CORPUSCULAR VOLUME” value (120 h, time 5 day) was 60.97 fL and the MONOCYTE (120 h, time 5 day) was 3.67%. The NEUTROPHIL (120 h, time 5 day) was 7.67%, the “NUCLEATED RED BLOOD CELLS” value (120 h, time 5 day) was 0.67 /100WBC and the “PLATELET COUNT” value (120 h, time 5 day) was 1207 x10E3/uL. The “ALANINE AMINOTRANSFERASE” value (120 h, time 5 day) was 112 u/L, the ALBUMIN (120 h, time 5 day) was 4.27 G/DL and the “ALKALINE PHOSPHATASE” value (120 h, time 5 day) was 330 u/L. For the same compound, the “ASPARTATE AMINOTRANSFERASE” value (120 h, time 5 day) was 171 u/L, the “BLOOD UREA NITROGEN” value (120 h, time 5 day) was 16.33 mg/dL and the “CARBON DIOXIDE” value (120 h, time 5 day) was 30.33 mmol/L. The CHLORIDE (120 h, time 5 day) was 101.67 MEQ/L, the CHOLESTEROL (120 h, time 5 day) was 94.33 mg/dL and the “CREATINE PHOSPHOKINASE” value (120 h, time 5 day) was 383.67 u/L. The CREATININE (120 h, time 5 day) was 0.27 mg/dL, the GLUCOSE (120 h, time 5 day) was 120.67 mg/dL and the “LACTATE DEHYDROGENASE” value (120 h, time 5 day) was 380.33 u/L. For the same compound, the LIPASE (120 h, time 5 day) was 12 u/L, the PHOSPHORUS (120 h, time 5 day) was 12.13 mg/dL and the POTASSIUM (120 h, time 5 day) was 7.47 MEQ/L. For the same compound, the SODIUM (120 h, time 5 day) was 144.4 MEQ/L, the “TOTAL BILIRUBIN” value (120 h, time 5 day) was 0.2 mg/dL and the “TOTAL PROTEIN” value (120 h, time 5 day) was 6.23 G/DL. The “URIC ACID” value (120 h, time 5 day) was 2.1 mg/dL.
